ChEMBL document CHEMBL5154901, “Development of Predictive Classification Models for Whole Cell Antimycobacterial Activity of Benzothiazinones” (J Med Chem, 2022)
Values after ≈ are worked out from the molar mass of the structure shown.

How the values were obtained:
Mycolicibacterium vaccae = assay: Antimycobacterial activity against Mycobacterium vaccae (JMRC:STI:10670) assessed as reduction in bacterial growth incubated for 42 hrs by serial dilution method; assay type: functional
[1] = Cytotoxicity against human HeLa cells assessed as reduction in cell viability incubated for 72 hrs by methylene blue staining based colorimetric assay; assay type: toxicity
[2] = Mycolicibacterium vaccae, JMRC:STI:10670, read-out: MIC

Row | MIC (Mycolicibacterium vaccae; [2]) [µM] | MIC (Mycolicibacterium vaccae) | SMILES | CC50 at 72 h [1] [µM]
1 | 30.4 (≈ 12.5 µg/mL) |  | CN(c1ccc(CO)cc1)c1nc(=O)c2cc(C(F)(F)F)cc([N+](=O)[O-])c2s1 | 
2 | 6.49 (≈ 3.12 µg/mL) |  | O=C(O)c1ccccc1N1CCN(c2nc(=O)c3cc(C(F)(F)F)cc([N+](=O)[O-])c3s2)CC1 | 
3 | 61.4 (≈ 25 µg/mL) |  | O=c1nc(Nc2ccc3[nH]ncc3c2)sc2c([N+](=O)[O-])cc(C(F)(F)F)cc12 | 
4 | 68.1 (≈ 25 µg/mL) |  | O=c1nc(Nc2ccccc2)sc2c([N+](=O)[O-])cc(C(F)(F)F)cc12 | 
5 | 0.0253 (≈ 0.0125 µg/mL) |  | O=C(CN1CCN(c2nc(=O)c3cc(C(F)(F)F)cc([N+](=O)[O-])c3s2)CC1)Nc1ccccc1 | > 101
6 | 0.0515 (≈ 0.025 µg/mL) |  | O=c1nc(N2CC[C@](O)(c3ccc(F)cc3)[C@@H](O)C2)sc2c([N+](=O)[O-])cc(C(F)(F)F)cc12 | 73.3
7 | 0.0027 (≈ 0.00158 µg/mL) |  | O=c1nc(N2CCN(CC(F)(F)c3ccc(OC(F)(F)F)cc3)CC2)sc2c([N+](=O)[O-])cc(C(F)(F)F)cc12 | > 86
8 | 0.0687 (≈ 0.031 µg/mL) |  | O=c1nc(N2CCN(Cc3ccncc3)CC2)sc2c([N+](=O)[O-])cc(C(F)(F)F)cc12 | > 111
9 | 0.0128 (≈ 0.00619 µg/mL) |  | O=c1nc(N2CC[C@@H](c3ccc(F)cc3)[C@H](CO)C2)sc2c([N+](=O)[O-])cc(C(F)(F)F)cc12 | 35.8
10 | 13.6 (≈ 6.25 µg/mL) |  | O=c1nc(N2Cc3[nH]nc(-c4ccccc4)c3C2)sc2c([N+](=O)[O-])cc(C(F)(F)F)cc12 | 
11 | 0.0132 (≈ 0.0062 µg/mL) |  | O=c1nc(N2CC[C@@H](c3ccc(F)cc3)[C@H](O)C2)sc2c([N+](=O)[O-])cc(C(F)(F)F)cc12 | 68.4
12 | 7.33 (≈ 3.12 µg/mL) |  | CN(c1ccc(CCO)cc1)c1nc(=O)c2cc(C(F)(F)F)cc([N+](=O)[O-])c2s1 | 
13 | 0.0347 (≈ 0.016 µg/mL) |  | N#Cc1cccc(N2CCN(c3nc(=O)c4cc(C(F)(F)F)cc([N+](=O)[O-])c4s3)CC2)c1 | > 108
14 | 0.0506 (≈ 0.025 µg/mL) |  | O=C(CN1CCN(c2nc(=O)c3cc(C(F)(F)F)cc([N+](=O)[O-])c3s2)CC1)Nc1ccccn1 | 44.5
15 |  | 1.1 10^3nM | O=c1nc(N2CCC(O)CC2)sc2c([N+](=O)[O-])cc(C(F)(F)F)cc12 | 
16 | 2 (≈ 0.779 µg/mL) |  | O=c1nc(N2CCC(CO)CC2)sc2c([N+](=O)[O-])cc(C(F)(F)F)cc12 | 
17 | 0.267 (≈ 0.0999 µg/mL) |  | CN1CCN(c2nc(=O)c3cc(C(F)(F)F)cc([N+](=O)[O-])c3s2)CC1 | 
18 | 1.55 (≈ 0.782 µg/mL) |  | O=C(c1cccc2[nH]ncc12)N1CCN(c2nc(=O)c3cc(C(F)(F)F)cc([N+](=O)[O-])c3s2)CC1 | 
19 | 0.205 (≈ 0.0999 µg/mL) |  | O=C(CN1CCN(c2nc(=O)c3cc(C(F)(F)F)cc([N+](=O)[O-])c3s2)CC1)N1CCOCC1 | 

Row | MIC (Mycolicibacterium vaccae; [2]) [µM] | MIC (Mycolicibacterium vaccae) | SMILES | CC50 at 72 h [1] [µM]
20 | 0.0491 (≈ 0.025 µg/mL) |  | O=c1nc(N2CCn3cc(-c4ccc(F)c(F)c4)nc3C2)sc2c([N+](=O)[O-])cc(C(F)(F)F)cc12 | 
21 | 0.41 (≈ 0.2 µg/mL) |  | Cn1c(-c2ccccc2)nc2c1CCN(c1nc(=O)c3cc(C(F)(F)F)cc([N+](=O)[O-])c3s1)C2 | 
22 | 52.8 (≈ 25 µg/mL) |  | O=c1nc(N2CCc3[nH]c(-c4ccccc4)nc3C2)sc2c([N+](=O)[O-])cc(C(F)(F)F)cc12 | 
23 |  | 5.8 10^3nM | CN1CCN(C(=O)CCC(=O)N2CCN(c3nc(=O)c4cc(C(F)(F)F)cc([N+](=O)[O-])c4s3)CC2)CC1 | 
24 | 0.0131 (≈ 0.0062 µg/mL) |  | O=c1nc(N2CCn3c(-c4ccccc4)cnc3C2)sc2c([N+](=O)[O-])cc(C(F)(F)F)cc12 | 
25 | 0.0527 (≈ 0.025 µg/mL) |  | O=c1nc(N2CCn3c(nnc3-c3ccccc3)C2)sc2c([N+](=O)[O-])cc(C(F)(F)F)cc12 | 
26 | 0.141 (≈ 0.0802 µg/mL) |  | O=c1nc(N2CCN(CCCC3(c4ccc(F)cc4)OCCO3)CC2)sc2c([N+](=O)[O-])cc(C(F)(F)F)cc12 | 
27 | 31.4 (≈ 12.5 µg/mL) |  | O=c1nc(N2CCn3nncc3C2)sc2c([N+](=O)[O-])cc(C(F)(F)F)cc12 | 
28 | 0.206 (≈ 0.0998 µg/mL) |  | CN1CCC(CCC2CCN(c3nc(=O)c4cc(C(F)(F)F)cc([N+](=O)[O-])c4s3)CC2)CC1 | 
29 | 0.949 (≈ 0.4 µg/mL) |  | CN(c1ccc2[nH]ncc2c1)c1nc(=O)c2cc(C(F)(F)F)cc([N+](=O)[O-])c2s1 | 
30 | 105 (≈ 49.8 µg/mL) |  | O=c1nc(N2CCn3nc(-c4ccccc4)nc3C2)sc2c([N+](=O)[O-])cc(C(F)(F)F)cc12 | 
31 |  | 16 10^3nM | O=c1nc(Nc2ccc(CO)cc2)sc2c([N+](=O)[O-])cc(C(F)(F)F)cc12 | 
32 | 0.0172 (≈ 0.00799 µg/mL) |  | O=c1nc(N2CCN(CCc3ccccc3)CC2)sc2c([N+](=O)[O-])cc(C(F)(F)F)cc12 | > 108
33 | 3.2 (≈ 1.56 µg/mL) |  | CCn1c(-c2ccccc2)nc2c1CN(c1nc(=O)c3cc(C(F)(F)F)cc([N+](=O)[O-])c3s1)C2 | 
34 |  | 6.6 10^3nM | CN1CCC(OC2CCN(c3nc(=O)c4cc(C(F)(F)F)cc([N+](=O)[O-])c4s3)CC2)CC1 | 
35 | 3.78 (≈ 1.56 µg/mL) |  | Cc1nnc2n1CCN(c1nc(=O)c3cc(C(F)(F)F)cc([N+](=O)[O-])c3s1)C2 | 
36 |  | 26 10^3nM | O=c1nc(N2CCc3nc(-c4ccccc4)ncc3C2)sc2c([N+](=O)[O-])cc(C(F)(F)F)cc12 | 
37 | 0.0535 (≈ 0.025 µg/mL) |  | O=c1nc(N2CC[C@@](O)(c3ccccc3)[C@H](O)C2)sc2c([N+](=O)[O-])cc(C(F)(F)F)cc12 | 68.5
